Test results: patent US20230284620A1, “MIXTURES OF PYRIDAZINES AS HERBICIDAL COMPOSITIONS” (SYNGENTA CROP PROTECTION AG, priority 2020, published 2023)

Experiments:
Assay in all cases: Post-emergence glasshouse herbicide test, visual phytotoxicity
Assay type in all cases: in vivo
Conditions in all cases: 13 days
[1] = test system: Abutilon threophrasti (ABUTH)
Protocol: (§1) Seeds of Setaria faberi (SETFA), Echinochloa crus-galli (ECHCG), Digitaria sanguinalis (DIGSA), Lolium perenne (LOLPE), Alopecurus myosuroides (ALOMY), Chenopodium album (CHEAL), Ipomoea hederacea (IPOHE), Stellaria media (STEME), Abutilon threophrasti (ABUTH) and Amaranthus retroflexus (AMARE) were sown in standard sterilised soil in pots. After cultivation for 8 days under controlled conditions in a glasshouse (at 24/19° C., day/night; 16 hours light; no humidity control), the plants were sprayed at 500 l/Ha with an aqueous spray solution derived from the formulation of the technical active ingredients in a small amount of acetone and a solvent and emulsifier mixture referred to as IF50 (11.12% Emulsogen EL360 TM+44.44% N-methylpyrrolidone+44.44% Dowanol DPM glycol ether), to create a 50 g/l solution which was then diluted using 0.2% Genapol X080 (CAS Number: 9043-30-5) as diluent to give the desired final dose of test compound.
(§2) Where active ingredients were applied as mixtures, aqueous spray solutions were prepared as above, containing both active ingredients.
(§3) The test plants were then grown under controlled conditions in a glasshouse (at 24/18° C., day/night; 15 hours light; 50% humidity) and watered twice daily. After 13 days, the test was evaluated visually for percentage phytotoxicity to the plants (where 100=total damage to plant; 0=no damage to plant; and NC=not captured) when compared to control untreated plants. Two to four replicates were applied for each treatment in a randomised block test design.
(§4) 22., E=X+Y−(X*Y/100), where • X=average percent phytotoxicity of herbicide A when applied at a certain rate • Y=average percent phytotoxicity using herbicide B when applied at a certain rate • E=the expected effect of the mixture of herbicides A and B as calculated from the Colby formula.

[2] = test system: Amaranthus retroflexus (AMARE)
Protocol: as §1, §2, §3, §4

[3] = test system: Chenopodium album (CHEAL)
Protocol: as §1, §2, §3, §4

[4] = test system: Digitaria sanguinalis (DIGSA)
Protocol: as §1, §2, §3, §4

[5] = test system: Echinochloa crus-galli (ECHCG)
Protocol: as §1, §2, §3, §4

[6] = test system: Ipomoea hederacea (IPOHE)
Protocol: as §1, §2, §3, §4

Lolium perenne (LOLPE) = test system: Lolium perenne (LOLPE)
Protocol: as §1, §2, §3, §4

Setaria faberi (SETFA) = test system: Setaria faberi (SETFA)
Protocol: as §1, §2, §3, §4

Stellaria media (STEME) = test system: Stellaria media (STEME)
Protocol: as §1, §2, §3, §4

[7] = test system: Alopecurus myosuroides (ALOMY)
Protocol: as §1, §2, §3, §4

Structure (SMILES): CN1C[C@H](c2cccc(C(F)(F)F)c2)[C@@H](C(=O)Nc2ccccc2F)C1=O [B-III]
- percentage phytotoxicity ABUTH ([1]; 3.125 g/ha): 10%
- percentage phytotoxicity ABUTH ([1]; 6.25 g/ha): 4%
- percentage phytotoxicity ABUTH ([1]; 12.5 g/ha): 3%
- percentage phytotoxicity ABUTH ([1]; 25 g/ha): 19%
- percentage phytotoxicity ABUTH ([1]; 50 g/ha): 18%
- percentage phytotoxicity AMARE ([2]; 3.125 g/ha): 4%
- percentage phytotoxicity AMARE ([2]; 6.25 g/ha): 6%
- percentage phytotoxicity AMARE ([2]; 12.5 g/ha): 10%
- percentage phytotoxicity AMARE ([2]; 25 g/ha): 21%
- percentage phytotoxicity AMARE ([2]; 50 g/ha): 31%
- percentage phytotoxicity CHEAL ([3]; 3.125 g/ha): 6%
- percentage phytotoxicity CHEAL ([3]; 6.25 g/ha): 10%
- percentage phytotoxicity CHEAL ([3]; 12.5 g/ha): 14%
- percentage phytotoxicity CHEAL ([3]; 25 g/ha): 44%
- percentage phytotoxicity CHEAL ([3]; 50 g/ha): 56%
- percentage phytotoxicity DIGSA ([4]; 3.125 g/ha): 72%
- percentage phytotoxicity DIGSA ([4]; 6.25 g/ha): 74%
- percentage phytotoxicity DIGSA ([4]; 12.5 g/ha): 78%
- percentage phytotoxicity DIGSA ([4]; 25 g/ha): 79%
- percentage phytotoxicity DIGSA ([4]; 50 g/ha): 80%
- percentage phytotoxicity ECHCG ([5]; 3.125 g/ha): 70%
- percentage phytotoxicity ECHCG ([5]; 6.25 g/ha): 70%
- percentage phytotoxicity ECHCG ([5]; 12.5 g/ha): 73%
- percentage phytotoxicity ECHCG ([5]; 25 g/ha): 73%
- percentage phytotoxicity ECHCG ([5]; 50 g/ha): 75%
- percentage phytotoxicity IPOHE ([6]; 3.125 g/ha): 9%
- percentage phytotoxicity IPOHE ([6]; 6.25 g/ha): 11%
- percentage phytotoxicity IPOHE ([6]; 12.5 g/ha): 15%
- percentage phytotoxicity IPOHE ([6]; 25 g/ha): 24%
- percentage phytotoxicity IPOHE ([6]; 50 g/ha): 28%
- percentage phytotoxicity LOLPE (Lolium perenne (LOLPE); 3.125 g/ha): 30%
- percentage phytotoxicity LOLPE (Lolium perenne (LOLPE); 6.25 g/ha): 43%
- percentage phytotoxicity LOLPE (Lolium perenne (LOLPE); 12.5 g/ha): 55%
- percentage phytotoxicity LOLPE (Lolium perenne (LOLPE); 25 g/ha): 70%
- percentage phytotoxicity LOLPE (Lolium perenne (LOLPE); 50 g/ha): 75%
- percentage phytotoxicity SETFA (Setaria faberi (SETFA); 3.125 g/ha): 66%
- percentage phytotoxicity SETFA (Setaria faberi (SETFA); 6.25 g/ha): 68%
- percentage phytotoxicity SETFA (Setaria faberi (SETFA); 12.5 g/ha): 70%
- percentage phytotoxicity SETFA (Setaria faberi (SETFA); 25 g/ha): 74%
- percentage phytotoxicity SETFA (Setaria faberi (SETFA); 50 g/ha): 73%
- percentage phytotoxicity STEME (Stellaria media (STEME); 3.125 g/ha): 13%
- percentage phytotoxicity STEME (Stellaria media (STEME); 6.25 g/ha): 21%
- percentage phytotoxicity STEME (Stellaria media (STEME); 12.5 g/ha): 14%
- percentage phytotoxicity STEME (Stellaria media (STEME); 25 g/ha): 46%
- percentage phytotoxicity STEME (Stellaria media (STEME); 50 g/ha): 71%

Structure (SMILES): CCOC(=O)COc1ncccc1Oc1cc(-n2c(=O)cc(C(F)(F)F)n(C)c2=O)c(F)cc1Cl [B-V]
- percentage phytotoxicity ABUTH ([1]; 0.08 g/ha): 23%
- percentage phytotoxicity ABUTH ([1]; 0.16 g/ha): 75%
- percentage phytotoxicity ABUTH ([1]; 0.32 g/ha): 85%
- percentage phytotoxicity ABUTH ([1]; 0.625 g/ha): 100%
- percentage phytotoxicity ABUTH ([1]; 1.25 g/ha): 100%
- percentage phytotoxicity ALOMY ([7]; 0.08 g/ha): 0%
- percentage phytotoxicity ALOMY ([7]; 0.16 g/ha): 5%
- percentage phytotoxicity ALOMY ([7]; 0.32 g/ha): 50%
- percentage phytotoxicity ALOMY ([7]; 0.625 g/ha): 55%
- percentage phytotoxicity ALOMY ([7]; 1.25 g/ha): 78%
- percentage phytotoxicity AMARE ([2]; 0.08 g/ha): 35%
- percentage phytotoxicity AMARE ([2]; 0.16 g/ha): 100%
- percentage phytotoxicity AMARE ([2]; 0.32 g/ha): 100%
- percentage phytotoxicity AMARE ([2]; 0.625 g/ha): 100%
- percentage phytotoxicity AMARE ([2]; 1.25 g/ha): 100%
- percentage phytotoxicity CHEAL ([3]; 0.08 g/ha): 8%
- percentage phytotoxicity CHEAL ([3]; 0.16 g/ha): 63%
- percentage phytotoxicity CHEAL ([3]; 0.32 g/ha): 78%
- percentage phytotoxicity CHEAL ([3]; 0.625 g/ha): 80%
- percentage phytotoxicity CHEAL ([3]; 1.25 g/ha): 95%
- percentage phytotoxicity DIGSA ([4]; 0.08 g/ha): 0%
- percentage phytotoxicity DIGSA ([4]; 0.16 g/ha): 13%
- percentage phytotoxicity DIGSA ([4]; 0.32 g/ha): 40%
- percentage phytotoxicity DIGSA ([4]; 0.625 g/ha): 50%
- percentage phytotoxicity DIGSA ([4]; 1.25 g/ha): 68%
- percentage phytotoxicity ECHCG ([5]; 0.08 g/ha): 0%
- percentage phytotoxicity ECHCG ([5]; 0.16 g/ha): 0%
- percentage phytotoxicity ECHCG ([5]; 0.32 g/ha): 10%
- percentage phytotoxicity ECHCG ([5]; 0.625 g/ha): 8%
- percentage phytotoxicity ECHCG ([5]; 1.25 g/ha): 20%
- percentage phytotoxicity IPOHE ([6]; 0.08 g/ha): 23%
- percentage phytotoxicity IPOHE ([6]; 0.16 g/ha): 50%
- percentage phytotoxicity IPOHE ([6]; 0.32 g/ha): 55%
- percentage phytotoxicity IPOHE ([6]; 0.625 g/ha): 93%
- percentage phytotoxicity IPOHE ([6]; 1.25 g/ha): 88%
- percentage phytotoxicity LOLPE (Lolium perenne (LOLPE); 0.08 g/ha): 0%
- percentage phytotoxicity LOLPE (Lolium perenne (LOLPE); 0.16 g/ha): 5%
- percentage phytotoxicity LOLPE (Lolium perenne (LOLPE); 0.32 g/ha): 38%
- percentage phytotoxicity LOLPE (Lolium perenne (LOLPE); 0.625 g/ha): 30%
- percentage phytotoxicity LOLPE (Lolium perenne (LOLPE); 1.25 g/ha): 60%
- percentage phytotoxicity SETFA (Setaria faberi (SETFA); 0.08 g/ha): 0%
- percentage phytotoxicity SETFA (Setaria faberi (SETFA); 0.16 g/ha): 0%
- percentage phytotoxicity SETFA (Setaria faberi (SETFA); 0.32 g/ha): 20%
- percentage phytotoxicity SETFA (Setaria faberi (SETFA); 0.625 g/ha): 20%
- percentage phytotoxicity SETFA (Setaria faberi (SETFA); 1.25 g/ha): 33%
- percentage phytotoxicity STEME (Stellaria media (STEME); 0.08 g/ha): 15%
- percentage phytotoxicity STEME (Stellaria media (STEME); 0.16 g/ha): 45%
- percentage phytotoxicity STEME (Stellaria media (STEME); 0.32 g/ha): 85%
- percentage phytotoxicity STEME (Stellaria media (STEME); 0.625 g/ha): 95%
- percentage phytotoxicity STEME (Stellaria media (STEME); 1.25 g/ha): 100%
